≈ marks a conversion by molar mass, not a printed value. Where two headings read alike, the source gives them in different places.
Key:
Format in all cases: cell-based
MSSA = assay: MIC against MSSA strain panel; conditions: Staphylococcus aureus, the 4th table, read-out: MIC
ATCC 29212 E. faecalis = assay: MIC against ATCC 29212 E. faecalis; conditions: Enterococcus faecalis, ATCC29212, ATCC 29212 E. faecalis, read-out: MIC
S. pneumoniae = assay: MIC against S. pneumoniae strain panel; conditions: Streptococcus pneumoniae, read-out: MIC
Group A Strep = assay: MIC against Group A Strep strain panel; conditions: read-out: MIC
Group B Strep = assay: MIC against Group B Strep strain panel; conditions: read-out: MIC
E. coli = assay: MIC against E. coli strains; conditions: the 4th table

- MIC (MSSA; VGP16-98 MSSA): 1 µg/mL (≈ 2.61 µM)
- MIC (MSSA; VGP16-99 MSSA): 1 µg/mL (≈ 2.61 µM)
- MIC (MSSA; VGP16-100 MSSA): 1 µg/mL (≈ 2.61 µM)
- MIC (MSSA; VGP16-101 MSSA): 1 µg/mL (≈ 2.61 µM)
- MIC (MSSA; VGP16-116 MSSA): 1 µg/mL (≈ 2.61 µM)
- MIC (MSSA; VGP16-117 MSSA): 1 µg/mL (≈ 2.61 µM)
- MIC (ATCC 29212 E. faecalis; the 4th table): 2 µg/mL (≈ 5.23 µM)
- MIC (ATCC 29212 E. faecalis; the 6th table): 2 µg/mL (≈ 5.23 µM)
- MIC (S. pneumoniae; ATCC49619, ATCC 49619 S. pneumoniae, CA-MHB w/5% LHB, the 4th table): 0.25 µg/mL (≈ 0.654 µM)
- MIC (S. pneumoniae; ATCC49619, ATCC 49619 S. pneumoniae, the 7th table): 0.5 µg/mL (≈ 1.31 µM)
- MIC (S. pneumoniae; CO314937 S. pneumoniae, CA-MHB w/5% LHB, the 4th table): 0.5 µg/mL (≈ 1.31 µM)
- MIC (S. pneumoniae; CT3-5008 S. pneumoniae, the 7th table): 0.5 µg/mL (≈ 1.31 µM)
- MIC (S. pneumoniae; CT3-5803 S. pneumoniae, the 7th table): 0.5 µg/mL (≈ 1.31 µM)
- MIC (S. pneumoniae; CT3-8501 S. pneumoniae, the 7th table): 0.5 µg/mL (≈ 1.31 µM)
- MIC (S. pneumoniae; CT4-3048 S. pneumoniae, the 7th table): 0.5 µg/mL (≈ 1.31 µM)
- MIC (S. pneumoniae; CT4-9046 S. pneumoniae, the 7th table): 0.25 µg/mL (≈ 0.654 µM)
- MIC (S. pneumoniae; CT4-9693 S. pneumoniae, the 7th table): 0.5 µg/mL (≈ 1.31 µM)
- MIC (S. pneumoniae; CT5-6541 S. pneumoniae, the 7th table): 0.5 µg/mL (≈ 1.31 µM)
- MIC (S. pneumoniae; CT5-8032 S. pneumoniae, the 7th table): 0.5 µg/mL (≈ 1.31 µM)
- MIC (S. pneumoniae; CT5-9124 S. pneumoniae, the 7th table): 0.25 µg/mL (≈ 0.654 µM)
- MIC (S. pneumoniae; CT6-0670 S. pneumoniae, the 7th table): 0.5 µg/mL (≈ 1.31 µM)
- MIC (S. pneumoniae; CT6-7691 S. pneumoniae, the 7th table): 0.5 µg/mL (≈ 1.31 µM)
- MIC (S. pneumoniae; CT0200-2241 S. pneumoniae, the 7th table): 0.5 µg/mL (≈ 1.31 µM)
- MIC (S. pneumoniae; CT0200-2730 S. pneumoniae, the 7th table): 0.5 µg/mL (≈ 1.31 µM)
- MIC (S. pneumoniae; MD77773 S. pneumoniae, CA-MHB w/5% LHB, the 4th table): 0.5 µg/mL (≈ 1.31 µM)
- MIC (Group A Strep; 2007-11 Group A Strep, the 8th table): 0.5 µg/mL (≈ 1.31 µM)
- MIC (Group A Strep; 2007-28 Group A Strep, the 8th table): 0.5 µg/mL (≈ 1.31 µM)
- MIC (Group A Strep; 2007-49 Group A Strep, the 8th table): 0.5 µg/mL (≈ 1.31 µM)
- MIC (Group A Strep; 2007-73 Group A Strep, the 8th table): 0.5 µg/mL (≈ 1.31 µM)
- MIC (Group A Strep; 2007-107 Group A Strep, the 8th table): 0.5 µg/mL (≈ 1.31 µM)
- MIC (Group A Strep; 2007-1101 Group A Strep, the 8th table): 0.5 µg/mL (≈ 1.31 µM)
- MIC (Group A Strep; 2008-06 Group A Strep, the 8th table): 0.5 µg/mL (≈ 1.31 µM)
- MIC (Group A Strep; 2008-45 Group A Strep, the 8th table): 0.5 µg/mL (≈ 1.31 µM)
- MIC (Group A Strep; 2008-818 Group A Strep, CA-MHB w/5% LHB, the 4th table): 0.25 µg/mL (≈ 0.654 µM)
- MIC (Group A Strep; 2008-1565 Group A Strep, the 8th table): 0.5 µg/mL (≈ 1.31 µM)
- MIC (Group A Strep; 2008-1692 Group A Strep, the 8th table): 0.5 µg/mL (≈ 1.31 µM)
- MIC (Group A Strep; 2008-1732 Group A Strep, CA-MHB w/5% LHB, the 4th table): 0.25 µg/mL (≈ 0.654 µM)
- MIC (Group A Strep; 2009-8 Group A Strep, the 8th table): 0.5 µg/mL (≈ 1.31 µM)
- MIC (Group A Strep; 2009-37 Group A Strep, CA-MHB w/5% LHB, the 4th table): 0.5 µg/mL (≈ 1.31 µM)
- MIC (Group A Strep; 2009-106 Group A Strep, the 8th table): 0.5 µg/mL (≈ 1.31 µM)
- MIC (Group A Strep; 2009-109 Group A Strep, the 8th table): 0.5 µg/mL (≈ 1.31 µM)
- MIC (Group A Strep; 2009-114 Group A Strep, the 8th table): 0.5 µg/mL (≈ 1.31 µM)
- MIC (Group A Strep; 2009-136 Group A Strep, the 8th table): 0.5 µg/mL (≈ 1.31 µM)
- MIC (Group B Strep; 2008-57 Group B Strep, the 9th table): 0.5 µg/mL (≈ 1.31 µM)
- MIC (Group B Strep; 2008-70 Group B Strep, the 9th table): 0.5 µg/mL (≈ 1.31 µM)
- MIC (Group B Strep; 2008-87 Group B Strep, CA-MHB w/5% LHB, the 4th table): 0.5 µg/mL (≈ 1.31 µM)
- MIC (Group B Strep; 2008-115 Group B Strep, the 9th table): 0.5 µg/mL (≈ 1.31 µM)
- MIC (Group B Strep; 2009-20 Group B Strep, the 9th table): 0.5 µg/mL (≈ 1.31 µM)
- MIC (Group B Strep; 2009-40 Group B Strep, the 9th table): 0.5 µg/mL (≈ 1.31 µM)
- MIC (Group B Strep; 2009-43 Group B Strep, the 9th table): 0.5 µg/mL (≈ 1.31 µM)
- MIC (Group B Strep; 2009-51 Group B Strep, the 9th table): 0.5 µg/mL (≈ 1.31 µM)
- MIC (Group B Strep; 2009-57 Group B Strep, the 9th table): 0.5 µg/mL (≈ 1.31 µM)
- MIC (Group B Strep; 2009-59 Group B Strep, the 9th table): 0.5 µg/mL (≈ 1.31 µM)
- MIC (Group B Strep; 2009-60 Group B Strep, the 9th table): 0.5 µg/mL (≈ 1.31 µM)
- MIC (Group B Strep; 2009-61 Group B Strep, CA-MHB w/5% LHB, the 4th table): 0.5 µg/mL (≈ 1.31 µM)
- MIC (Group B Strep; 2009-62 Group B Strep, CA-MHB w/5% LHB, the 4th table): 0.25 µg/mL (≈ 0.654 µM)
- MIC (Group B Strep; J4182 Group B Strep, the 9th table): 0.5 µg/mL (≈ 1.31 µM)
- MIC (Group B Strep; J4183 Group B Strep, the 9th table): 0.5 µg/mL (≈ 1.31 µM)
- MIC (Group B Strep; J4185 Group B Strep, the 9th table): 0.5 µg/mL (≈ 1.31 µM)
- MIC (Group B Strep; J4186 Group B Strep, the 9th table): 0.5 µg/mL (≈ 1.31 µM)
- MIC (Group B Strep; J4222 Group B Strep, the 9th table): 0.5 µg/mL (≈ 1.31 µM)
- MIC (E. coli; AR-137 E. coli): >64 µg/mL
- MIC (E. coli; Escherichia coli, ATCC25922, ATCC 25922 E. coli, read-out: MIC): > 64 µg/mL
- MIC (E. coli; Escherichia coli, AR-451 E. coli, read-out: MIC): > 64 µg/mL
Compound: CCC1C(c2ccc(C(F)(F)F)cc2)=C(O)C(=O)N1C1CCC(NC)CC1 (stereo not shown) [Compound 4]
